In patent publication US10118911B2, “P-toluenesulfonate for MEK kinase inhibitor, and crystal form thereof and preparation method therefor” (Jiangsu Hengrui Medicine Co., Ltd., priority 2015, dated 2018):

How the values were obtained:
[1] = Stability of crystal form I spread flat in the air under lighting, heating and high humidity, purity detected by HPLC; assay type: physicochemical; settings: for stability (in words): lighting, high temperature, high humidity, p-toluenesulfonate
Procedure: The product sample of crystal form I prepared in Example 2 was spread flat in the air, to test its stability under conditions of lighting, heating (40° C., 60° C.), and high humidity (RH 75%, RH 90%). Samplings were carried out on Day 5 and Day 10.

[2] = Special stability study of crystal form I (grinding, heating, pressing); assay type: physicochemical
Text: Crystal form I of the compound of formula (I) prepared according to the method of Example 2 was ground, heated and pressed.

MEK kinase = settings: from PCT/CN2014/085976 of the applicant; cited from earlier work
[3] = Solubility compared to the free base; assay type: physicochemical
[4] = Bioavailability compared to the free base; assay type: in vivo
[5] = after grinding treatment for 10 min in a mortar under nitrogen atmosphere
[6] = after heating treatment for 3 h at 80° C.
[7] = after pressing treatment (pressed to a slice)

Cc1ccc(Oc2cc(=O)n(C)c(Nc3ccc(I)cc3F)c2C(N)=O)cn1.Cc1ccc(S(=O)(=O)O)cc1 [2-((2-fluoro-4-iodophenyl)amino)-1-methyl-4-((6-methylpyridin-3-yl)oxy)-6-oxo-1,6-di hydropyridine-3-carboxamide p-toluenesulfonate]
purity detected by HPLC ([1]; 40° C., day 0): 98.86% | purity detected by HPLC ([1]; 40° C., day 5): 98.85% | purity detected by HPLC ([1]; 40° C., day 10): 98.88% | purity detected by HPLC ([1]; 60° C., day 0): 98.86% | purity detected by HPLC ([1]; 60° C., day 5): 98.89% | purity detected by HPLC ([1]; 60° C., day 10): 98.88% | purity detected by HPLC ([1]; 4500 Lux, day 0): 98.86% | purity detected by HPLC ([1]; 4500 Lux, day 5): 99.08% | purity detected by HPLC ([1]; 4500 Lux, day 10): 99.17% | purity detected by HPLC ([1]; RH75%, day 0): 98.86% | purity detected by HPLC ([1]; RH75%, day 5): 98.88% | purity detected by HPLC ([1]; RH75%, day 10): 98.88% | purity detected by HPLC ([1]; RH90%, day 0): 98.86% | purity detected by HPLC ([1]; RH90%, day 5): 98.86% | purity detected by HPLC ([1]; RH90%, day 10): 98.88% | stability (in words) ([1]; listed as crystal form I): good stability | stability (in words) [1]: stable | Crystal form [2, 5]: form I | DSC peak [2, 5]: 237.66 °C | Crystal form [2, 6]: form I | DSC peak [2, 6]: 237.45 °C | Crystal form [2, 7]: form I | DSC peak [2, 7]: 237.75 °C | stability of the crystal form (in words) ([2]; grinding, pressure and heating): stable

Cc1ccc(Oc2cc(=O)n(C)c(Nc3ccc(I)cc3F)c2C(N)=O)cn1 [Example 1, 2-((2-fluoro-4-iodophenyl)amino)-1-methyl-4-((6-methylpyridin-3-yl)oxy)-6-oxo-1,6-dihydropyridine-3-carboxamide]
inhibitory activity against MEK kinase (MEK kinase): strong inhibitory activity

Cc1ccc(Oc2cc(=O)n(C)c(Nc3ccc(I)cc3F)c2C(N)=O)cn1.Cc1ccc(S(=O)(=O)O)cc1 [compound of formula (I), 2-((2-fluoro-4-iodophenyl)amino)-1-methyl-4-((6-methylpyridin-3-yl)oxy)-6-oxo-1,6-di hydropyridine-3-carboxamide p-toluenesulfonate]
solubility [3]: greatly improved | bioavailability [4]: greatly improved
